Assay results reported in article PMC5228037, “Discovery and Mechanistic Characterization of Selective Inhibitors of H2S-producing Enzyme: 3-Mercaptopyruvate Sulfurtransferase (3MST) Targeting Active-site Cysteine Persulfide” (Scientific Reports, 2017).
Entries after “also recorded” stand apart in the source; their conditions may differ.

How the values were obtained:
[1] = target: T1, non-persulfurated 3MST (Mus musculus, UniProt Q99J99); assay: ITC analysis with non-persulfurated 3MST; format: binding; conditions: 3MP-untreated 3MST
T1 construct: The recombinant full-length wild-type mouse 3MST; made in house; host or cells: E. coli JM109 (DE3)
T1 sequence (Q99J99 1-297): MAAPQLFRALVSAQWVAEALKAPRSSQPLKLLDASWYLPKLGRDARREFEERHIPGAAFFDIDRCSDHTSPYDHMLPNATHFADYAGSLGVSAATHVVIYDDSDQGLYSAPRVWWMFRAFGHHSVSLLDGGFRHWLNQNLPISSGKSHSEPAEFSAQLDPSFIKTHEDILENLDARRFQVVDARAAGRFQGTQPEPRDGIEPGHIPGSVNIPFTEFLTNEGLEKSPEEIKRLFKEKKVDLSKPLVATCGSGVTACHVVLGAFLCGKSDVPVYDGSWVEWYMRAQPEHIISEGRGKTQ
Procedure: The recombinant full-length wild-type mouse 3MST and mutant m3MST (C65S/C255S/C264S) were expressed as an N-terminal His-tagged protein ([…]-3MST) in E. coli JM109 (DE3). The pET44a(+) vector (Novagen) was used as an expression vector. Cells were grown at 37 °C in LB broth (Miller) or 2 × YT broth containing 0.1 g/L ampicillin to OD600 about 0.5, and then protein expression was induced by adding IPTG (final conc. 0.5 mM (LB), 1 mM (2 × YT)). Cells were cultured overnight at 18–20 °C with shaking and harvested at 4 °C by centrifugation at 9,000 rpm for 5 min. Harvested cells were resuspended in lysis buffer containing 0.1 M HEPES-NaOH pH 8, 0.5 M NaCl, 0% or 10% glycerol, 0.5 mM TCEP, 1 mM PMSF, and 1% EtOH, and disrupted by sonication. Cell lysis solutions were centrifuged at 20,000 rpm for 20 min. […] The proteins were further purified on HisTrap HP (GE Healthcare) by increasing the imidazole concentration in buffer containing 0.02 M HEPES pH 8, 0.15 M NaCl, 10% glycerol, and 0.05 mM TCEP until proteins were eluted. Then the His-tag was removed by GST-fusion HRV 3 C protease digestion. […]

[2] = target: T2, persulfurated 3MST (Mus musculus, UniProt Q99J99); assay: ITC analysis with persulfurated 3MST; format: binding; conditions: 25 °C; for ΔH (ITC): persulfurated 3MST; for Kd: persulfurated (3MP-treated) 3MST, pH 9, read-out: Dissociation constant Kd (ITC)
T2 construct: The recombinant full-length wild-type mouse 3MST; made in house; host or cells: E. coli JM109 (DE3)
T2 sequence (Q99J99 1-297): T1 sequence (Q99J99 1-297)
Procedure: The recombinant full-length wild-type mouse 3MST and mutant m3MST (C65S/C255S/C264S) were expressed as an N-terminal His-tagged protein ([…]-3MST) in E. coli JM109 (DE3). The pET44a(+) vector (Novagen) was used as an expression vector. Cells were grown at 37 °C in LB broth (Miller) or 2 × YT broth containing 0.1 g/L ampicillin to OD600 about 0.5, and then protein expression was induced by adding IPTG (final conc. 0.5 mM (LB), 1 mM (2 × YT)). Cells were cultured overnight at 18–20 °C with shaking and harvested at 4 °C by centrifugation at 9,000 rpm for 5 min. Harvested cells were resuspended in lysis buffer containing 0.1 M HEPES-NaOH pH 8, 0.5 M NaCl, 0% or 10% glycerol, 0.5 mM TCEP, 1 mM PMSF, and 1% EtOH, and disrupted by sonication. Cell lysis solutions were centrifuged at 20,000 rpm for 20 min. […] The proteins were further purified on HisTrap HP (GE Healthcare) by increasing the imidazole concentration in buffer containing 0.02 M HEPES pH 8, 0.15 M NaCl, 10% glycerol, and 0.05 mM TCEP until proteins were eluted. Then the His-tag was removed by GST-fusion HRV 3 C protease digestion. The proteins were further purified by anion exchange chromatography on a HiTrap Q HP (GE Healthcare) by increasing the NaCl concentration in buffer containing 0.02 M HEPES pH 8, 10% glycerol, 0.5 mM TCEP until proteins were eluted, and then by gel filtration chromatography on Superdex 75 prep grade using buffer containing 0.02 M HEPES pH 7.5, 0.3 M NaCl, 0.5 mM TCEP. Wild-type 3MST was used in ITC analysis and mutant 3MST was used for crystallization.
Persulfurated 3MST was prepared as follows: 3MST-3MP solution (5 μM 3MST, 25 μM 3MP, 20 μM TCEP, 0.02 M glycine-NaOH pH9, 0.1 M NaCl) was incubated for 2 hr at room temperature. To prevent buffer mismatch and to remove unreacted 3MP and reaction product (pyruvate), the reaction solution was exchanged to ITC measurement solution (0.02 M glycine-NaOH pH 9, 0.1 M NaCl, 5% DMSO) using an Amicon Ultra (10 K) (Millipore) or Vivaspin (10 K) (Sartorius). Non-persulfurated 3MST solution was also prepared by buffer exchange. Both inhibitors were dissolved in the ITC measurement solution. Inhibitor solution (0.5 mM compound 1 or 0.25 mM compound 3) were titrated into a protein solution (0.05 mM 3MST) at 25 °C using a MicroCal iTC200 (GE Healthcare). The first injection of 0.4 μL was followed by 18 injections of 2 μL with 150 s between each injection. Each experiment was repeated three times (n = 3). For data analysis, the first injection peak was removed. Data analyses and curve fitting to a single-site binding model were performed by Origin7 SR4 software (OriginLab).

| Compound | Binding to non-persulfurated 3MST (ITC heat release) [1] | ΔH (ITC) [2] | Kd [2] |
| --- | --- | --- | --- |
| NC(=O)c1ccsc1NC(=O)CSc1nc2ccccc2c(=O)[nH]1 [compound 1] | no heat release; also recorded: do not bind | -9.37 kcal/mol | 3000 nM |
| Cc1cc(=O)[nH]c(SCC(=O)c2cccc3ccccc23)n1 [compound 3] | no heat release; also recorded: do not bind | -11.76 kcal/mol | 500 nM |
